The structures appear in SMILES notation. Some results are limits rather than exact numbers.

For experiment [1], the system named is RKO (RKOp27) human colon adenocarcinoma cells. The experiment is described as follows: Alamar Blue cell viability assay, anti-proliferative/cytotoxic activity on proliferating RKO subclones. The settings on record: RKOp27, 72 h, RKO p27 uninduced (proliferating) cells, value = class bound given in Table A, read-out: −logIC50 RKO p27 uninduced (proliferating) (converted). Format: cell-based. Summed up: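 Alamar Blue fluorescence (ex 544, em 590 nm) after 72 h compound exposure at 37 °C, 5% CO2, normalised to untreated controls set at 100%. Cells were seeded at 5000 per well and dosed 24 h later with serial semi-logarithmic dilutions in 10% FCS DMEM, four replicates each. −log IC50 [mol/l] was derived from concentration-effect curves.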
Background: Resazurin is reduced to fluorescent resorufin, in cell work by metabolically active cells.

Experiment [2] has as its system subclones of RKO colon adenocarcinoma cells (RKOp27 or RKOp21) arrested by Ponasterone A. Nature of the experiment: Alamar Blue cell viability assay, cell cycle specific mode of action: cells arrested by ectopic p27Kip1 induced by Ponasterone A versus proliferating cells. Format: cell-based. The settings on record: Homo sapiens, RKO p27 induced (arrested) cells, 10 μM Ponasterone A, 72 hours, value = class bound given in Table A, read-out: −logIC50 RKO p27 induced (arrested) (converted). Summed up:
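Viability of proliferating versus Ponasterone A (10 μM)-arrested RKOp27/RKOp21 cells after 72 h compound exposure at 37° C, in quadruplicate. Read-out is Alamar Blue fluorescence (544/590 nm) normalised to untreated cells = 100%; values as −log IC50.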

For `CC(CC(=O)Nc1sc2c(c1C#N)CCC(OC(=O)NC1CCOCC1)C2)c1ccccc1` (centres unmarked) [Example 291, (Tetrahydro-pyran-4-yl)-carbamic acid 3-cyano-2-(3-phenyl-butanoyl-amino)-4,5,6,7-tetrahydro-benzo[b]thiophen-6-yl ester], the IC50 in experiment [1] is no more than 501 nM; in experiment [2], no less than 10000 nM.
For the compound `Cc1oncc1CNC(=O)OC1CCc2c(sc(NC(=O)CC(C)c3cccnc3)c2C#N)C1` (centres unmarked) [Example 354, (5-Methyl-isoxazol-4-ylmethyl)-carbamic acid 3-cyano-2-(3-pyridin-3-yl-butanoylamino)-4,5,6,7-tetrahydro-benzo[b] thiophen-6-yl ester], the IC50 is 501 to 2000 nM in experiment [1] and no less than 100000 nM in experiment [2].
`Cc1ccncc1/C=C/C(=O)Nc1sc2c(c1C#N)CCC(COC(=O)N1CCCC1)C2` (centres unmarked) [Example 130, Pyrrolidine-1-carboxylic acid 3-cyano-2-[(E)-3-(4-methyl-pyridin-3-yl)-allanoylamino]-4,5,6,7-tetrahydro-benzo[b]thiophen-6-ylmethyl ester]: the results for the IC50 in experiment [1] and in experiment [2] were no more than 501 nM and no less than 100000 nM, respectively.
For `CCNC(=O)OCC1CCc2c(sc(NC(=O)/C=C/c3cccnc3)c2C#N)C1` (centres unmarked) [Example 9, Ethyl-carbamic acid 3-cyano-2-((E)-3-pyridin-3-yl-allanoylamino)-4,5,6,7-tetrahydro-benzo[b]thiophen-6-ylmethyl ester] the same measures were 501 to 2000 nM and no less than 100000 nM.
As to `Cc1nocc1CNC(=O)OC1CCc2c(sc(NC(=O)/C=C/c3cccnc3)c2C#N)C1` (centres unmarked) [Example 59, (3-Methyl-isoxazol-4-ylmethyl)-carbamic acid 3-cyano-2-((E)-3-pyridin-3-yl-allanoylamino)-4,5,6,7-tetrahydro-benzo[b]thiophen-6-yl ester], the IC50 is no more than 501 nM in experiment [1] and no less than 100000 nM in experiment [2].
As to `N#Cc1c(NC(=O)/C=C/c2cccnc2)sc2c1CCC(COC(=O)N1CC[C@@H](O)[C@@H](O)C1)C2` (stereo partly drawn) [Example 122, cis-3-, 4-Dihydroxy-piperidine-1-carboxylic acid 3-cyano-2-((E)-3-pyridin-3-yl-allanoylamino)-4,5,6,7-tetrahydro-benzo[b]thiophen-6-ylmethyl ester], the IC50 in experiment [1] is no more than 501 nM; in experiment [2] it was no less than 100000 nM.
Turning to `COc1cccc(C(C)CC(=O)Nc2sc3c(c2C#N)CCC(COC(=O)NCc2cccnc2)C3)c1` (centres unmarked) [Example 325, Pyridin-3-ylmethyl-carbamic acid 3-cyano-2-[3-(3-methoxy-phenyl)-butanoylamino]-4,5,6,7-tetrahydro-benzo[b]thiophen-6-ylmethyl ester], the IC50 in experiment [1] is 501 to 2000 nM; in experiment [2] it was no less than 50100 nM.
In the case of `Cc1nnc(CNC(=O)OCC2CCc3c(sc(NC(=O)/C=C/c4cccnc4)c3C#N)C2)o1` (centres unmarked) [Example 72, (5-Methyl-[1,3,4]oxadiazol-2-ylmethyl)-carbamic acid 3-cyano-2-((E)-3-pyridin-3-yl-allanoylamino)-4,5,6,7-tetrahydro-benzo[b]thiophen-6-ylmethyl ester], the values for the IC50 in experiment [1] and in experiment [2] were no more than 501 nM and no less than 100000 nM, respectively.
Consider `COc1cccc(C(C)CC(=O)Nc2sc3c(c2C#N)CCC(OC(=O)NC2CCOCC2)C3)c1` (centres unmarked) [Example 271, (Tetrahydro-pyran-4-yl)-carbamic acid 3-cyano-2-[3-(3-methoxy-phenyl)-butanoylamino]-4,5,6,7-tetrahydro-benzo[b] thiophen-6-yl ester], for which the IC50 was 501 to 2000 nM in experiment [1] and no less than 100000 nM in experiment [2].
As to `CCOc1ccccc1/C=C/C(=O)Nc1sc2c(c1C#N)CCC(COC(=O)NCc1ccccn1)C2` (centres unmarked) [Example 15, Pyridin-2-ylmethyl-carbamic acid 3-cyano-2-[(E)-3-(2-ethoxy-phenyl)-allanoylamino]-4,5,6,7-tetrahydro-benzo[b]thiophen-6-ylmethyl ester], the values for the IC50 in experiment [1] and in experiment [2] were 501 to 2000 nM and no less than 100000 nM, respectively.
In the case of `N#Cc1c(NC(=O)/C=C/c2cccnc2)sc2c1CCC(OC(=O)N1CC=CC1)C2` (centres unmarked) [Example 92, 2,5-Dihydro-pyrrole-1-carboxylic acid 3-cyano-2-((E)-3-pyridin-3-yl-allanoylamino)-4,5,6,7-tetrahydro-benzo[b]thiophen-6-yl ester], the IC50 was no more than 501 nM in experiment [1] and no less than 100000 nM in experiment [2].
On to `N#Cc1c(NC(=O)/C=C/c2cccnc2)sc2c1CCC(OC(=O)N1CCC[C@H]1CO)C2` (stereo partly drawn) [Example 108, 2-(S)-(Hydroxymethyl) pyrrolidine-1-carboxylic acid 3-cyano-2-((E)-3-pyridin-3-yl-allanoylamino)-4,5,6,7-tetrahydro-benzo[b]thiophen-6-yl ester], for which the IC50 is 501 to 2000 nM in experiment [1] and no less than 100000 nM in experiment [2].
For the compound `CCOc1ccccc1CCC(=O)Nc1sc2c(c1C#N)CCC(OC(=O)NCCn1ccnc1)C2` (centres unmarked) [Example 163, (2-Imidazol-1-yl-ethyl)-carbamic acid 3-cyano-2-[3-(2-ethoxy-phenyl)-propanoylamino]-4,5,6,7-tetrahydro-benzo[b]thiophen-6-yl ester], the IC50 was no more than 501 nM in experiment [1] and no less than 10000 nM in experiment [2].
As for `CNC(=O)OC[C@H]1CCc2c(sc(NC(=O)/C=C/c3cccnc3)c2C#N)C1` [Example 16a, (S)-Methyl-carbamic acid 3-cyano-2-((E)-3-pyridin-3-yl-allanoylamino)-4,5,6,7-tetrahydro-benzo[b]thiophen-6-ylmethyl ester], the IC50 is no more than 501 nM in experiment [1] and no less than 100000 nM in experiment [2].
`N#Cc1c(NC(=O)/C=C/c2cccnc2)sc2c1CCC(OC(=O)NCCc1cccnc1)C2` (centres unmarked) [Example 36, (2-Pyridin-3-yl-ethyl)-carbamic acid 3-cyano-2-((E)-3-pyridin-3-yl-allanoylamino)-4,5,6,7-tetrahydro-benzo[b]thiophen-6-yl ester]: the IC50 in experiment [1] was 501 to 2000 nM; in experiment [2], no less than 50100 nM.
`CCOc1ccccc1CCC(=O)Nc1sc2c(c1C#N)CCC(COC(=O)NCc1ccccc1)C2` (centres unmarked) [Example 160, Benzyl-carbamic acid 3-cyano-2-[3-(2-ethoxy-phenyl)-propanoylamino]-4,5,6,7-tetrahydro-benzo[b]thiophen-6-ylmethyl ester]: the figures for the IC50 in experiment [1] and in experiment [2] were no more than 501 nM and no less than 100000 nM, respectively.
For `COc1cccc(CCC(=O)Nc2sc3c(c2C#N)CCC(COC(=O)NCc2cnoc2C)C3)c1` (centres unmarked) [Example 242, (5-Methyl-isoxazol-4-ylmethyl)-carbamic acid 3-cyano-2-[3-(3-methoxy-phenyl)-propanoylamino]-4,5,6,7-tetrahydro-benzo[b]thiophen-6-ylmethyl ester] the same measures were no more than 501 nM and no less than 100000 nM.
As for `CC(CC(=O)Nc1sc2c(c1C#N)CCC(COC(=O)N1CCCC1)C2)c1ccccn1` (centres unmarked) [Example 371, Pyrrolidine-1-carboxylic acid 3-cyano-2-(3-pyridin-2-yl-butanoylamino)-4,5,6,7-tetrahydro-benzo[b]thiophen-6-ylmethyl ester], the IC50 in experiment [1] was 501 to 2000 nM; in experiment [2] it was no less than 50100 nM.
Turning to `Cc1n[nH]cc1CNC(=O)OCC1CCc2c(sc(NC(=O)CC(C)c3ccccc3)c2C#N)C1` (centres unmarked) [Example 317, (3-Methyl-1H-pyrazol-4-ylmethyl)-carbamic acid 3-cyano-2-(3-phenyl-butanoylamino)-4,5,6,7-tetrahydro-benzo[b] thiophen-6-ylmethyl ester], the IC50 in experiment [1] is no more than 501 nM; in experiment [2], no less than 10000 nM.

The record behind these values is patent publication US20110044938A1 (NYCOMED GMBH, priority 2006, published 2011).
